Patent US20220233469A1, “METHODS, COMPOSITIONS AND DEVICES FOR TREATING NEUROINFLAMMATORY CONDITIONS” (ALYRA BIOTECH PTY LTD, priority 2019, published 2022)
“Also recorded” adds a separate entry of the source.

Columns and labels:
HEK293/Null1 = test: TLR-/NLR- control cell line HEK293/Null1 stimulated with TNFa; type: cell-based, human; conditions: stimulated with TNFa at 10 ng/mL
Procedure: (§1) Toll-Like Receptor (TLR), NOD-Like Receptor (NLR) and C-Type Lectin Receptor (CLR) stimulation were tested by assessing NF-κB activation in HEK293 cells expressing a given TLR, NLR or CLR. The activity of the test articles was tested at one concentration and compared to control ligands. These steps were performed in triplicate. In a 96-well plate (200 μL total volume) containing the appropriate cells (50,000-75,000 cells/well), 20 μL of the test article or the positive control ligand was added to the wells. For the antagonist assay, the test article was incubated with the cells, at 37° C. with 5% CO2, for 30 minutes prior to the addition of the positive control ligand to the wells. The media added to the wells was designed for the detection of NF-κB induced SEAP expression. After a 16-24 hr incubation the optical density (OD) was read at 650 nm on a Molecular Devices SpectraMax 340PC absorbance detector.

HEK293/Null2 = test: TLR-/NLR- control cell line HEK293/Null2 stimulated with TNFa; type: cell-based, human; conditions: stimulated with TNFa at 10 ng/mL
Procedure: as §1

HEK293/Null = test: RIG-I-/MDA-5- control cell line HEK293/Null stimulated with hIFNα; type: cell-based, human; conditions: stimulated with recombinant hIFNα at 100 IU/mL
Procedure: RIG-I and MDA-5 stimulation were tested by assessing IRF3 activation in HEK293 cells expressing human RIG-I or MDA-5 genes. The activity of the test articles was tested on human RIG-I and MDA-5 expressing cells as a potential agonist or antagonist. The test articles were evaluated at one concentration and compared to control ligands. This step was performed in triplicate. The results are provided as Relative Luminescence Units (RLUs).
RIG-I^−/MDA-5^− Cell Lines: HEK293/Null: Control for human RIG-I and MDA-5 Poly(I:C)HMW/LyoVec at 1 μg/mL. Antagonist: 500 ng/mL 5′ppp-dsRNA/LyoVec at 1 μg/mL. Antagonist: 500 ng/mL hIFNα at 1000 IU/mL. Antagonist: 100 IU/mL.
In a 96-well plate (200 μL total volume) containing the appropriate cells (25,000-50,000 cells/well), 20 μL of the test article or of the positive control ligand was added to the wells. For the antagonist assay, the test article was incubated with the cells, at 37° C. with 5% CO2, for 30 minutes prior to the addition of the positive control ligand to the wells. After 20 hour incubation, activation of the IRF pathway was monitored using a luciferase detection assay. Luciferase activity was assayed in triplicate from the supernatant of the induced cells, and the relative luminescence units (RLUs) are detected by a Promega GloMax Luminometer.

dorsal horn astrocytes = test: Activation of dorsal horn astrocytes (GFAP immunofluorescence) after intrauterine LPS in mice; type: in vivo, mouse; conditions: for LPS-induced activation of spinal astrocytes (GFAP staining, dorsal horn): intrauterine, given with LPS (100 ug/kg) once per estrus cycle over three cycles, Amitriptyline 28 ug/kg, TAK-242 36 ug/kg; for integrated density of GFAP staining (activated astrocytes within the dorsal horn): level of T12, intrauterine LPS with Amitriptyline or TAK-242 vs LPS, p=0.0002
Excerpt: (§2) We first recognised that neuroinflammatory conditions of the nervous system may be, at least in part, due to activation of the innate immune system within the uterus resulting in activation of glial cells in the dorsal horn of the spinal cord. To model this in mice, a study was undertaken administering LPS (lipopolysaccharide), a potent immune activator, to the uterus of mice once per estrus cycle over three cycles.
(§3) Studies were also undertaken to investigate whether a small dose of amitriptyline, an inhibitor of the pattern recognition receptors TLR, NOD, CLR, RIG-1 and MDA-5, administered with LPS within the uterus could prevent LPS-induced activation of spinal glial cells. To confirm that the amitriptyline was acting, at least in part, by blocking TLRs, an investigation was also conducted on mice given a small dose of pure TLR4 blocker-TAK-242—with LPS.
(§4) The Nonsurgical Embryo Transfer Device (Paratech, USA) was used to allow insertion of fluid into the uterus with brief, mild discomfort to the mouse, and no need for anaesthesia. Following three estrus cycles, glial activation in the dorsal horn of the spinal cord was measured using immunofluorescence. Activation of dorsal horn astrocytes was assessed using GFAP. Activation of dorsal horn microglia was assessed using Iba1. We compared the activation of spinal glia in mice with intrauterine administration of saline only, saline and LPS (100 ug/kg), saline LPS (100 ug/kg) and Amitriptyline (28 ug/kg), and saline LPS (100 ug/kg) and TAK-242 (36 ug/kg).
(§5) The spinal cord was assessed using immunohistochemistry techniques across levels T10, T11, T12, T13, L1, L2, L3, L4, L5, L6, S1 and S2 where T represents the thoracic segment of the spinal cord, L represents the lumbar segment of the spinal cord and S represents the sacral segment of the spinal cord. The regions of interest in the dorsal horn include Laminae I, II, III and IV. Changes in spinal glial reactivity are causally linked to all known models of neuroinflammatory medical conditions.

dorsal horn microglia = test: Activation of dorsal horn microglia (Iba1 immunofluorescence) after intrauterine LPS in mice; type: in vivo, mouse; conditions: for LPS-induced activation of spinal microglia (Iba1 staining, dorsal horn): intrauterine, given with LPS (100 ug/kg) once per estrus cycle over three cycles, Amitriptyline 28 ug/kg, TAK-242 36 ug/kg
Excerpt: as §2, §3, §4, §5

spinal glial cells = test: Spinal glial activation after intrauterine LPS in mice; type: in vivo, mouse; conditions: for LPS-induced spinal glial activation: intrauterine co-administration with LPS (100 ug/kg), Amitriptyline 28 ug/kg, TAK-242 36 ug/kg
Excerpt: as §2, §3, §4, §5

[1] = Facial Grimace Score after intrauterine LPS in mice; type: in vivo, mouse; conditions: for Facial Grimace Score: mice, 24 hours following the final LPS stimulation
[2] = used orally in clinical practice; cited from earlier work
Human TLR7 = biological target: T1, Human TLR7 (Homo sapiens, UniProt Q9NYK1); test: Human TLR antagonist screening: NF-κB activation in HEK293 cells, TLR7; type: cell-based; conditions: antagonist mode; test article 1 μM, +CL307 10 ng/ml; No Sample 13, Control- 1
T1 construct: expressed in transfected cells; host or cells: HEK293
T1 sequence (Q9NYK1 27-1049): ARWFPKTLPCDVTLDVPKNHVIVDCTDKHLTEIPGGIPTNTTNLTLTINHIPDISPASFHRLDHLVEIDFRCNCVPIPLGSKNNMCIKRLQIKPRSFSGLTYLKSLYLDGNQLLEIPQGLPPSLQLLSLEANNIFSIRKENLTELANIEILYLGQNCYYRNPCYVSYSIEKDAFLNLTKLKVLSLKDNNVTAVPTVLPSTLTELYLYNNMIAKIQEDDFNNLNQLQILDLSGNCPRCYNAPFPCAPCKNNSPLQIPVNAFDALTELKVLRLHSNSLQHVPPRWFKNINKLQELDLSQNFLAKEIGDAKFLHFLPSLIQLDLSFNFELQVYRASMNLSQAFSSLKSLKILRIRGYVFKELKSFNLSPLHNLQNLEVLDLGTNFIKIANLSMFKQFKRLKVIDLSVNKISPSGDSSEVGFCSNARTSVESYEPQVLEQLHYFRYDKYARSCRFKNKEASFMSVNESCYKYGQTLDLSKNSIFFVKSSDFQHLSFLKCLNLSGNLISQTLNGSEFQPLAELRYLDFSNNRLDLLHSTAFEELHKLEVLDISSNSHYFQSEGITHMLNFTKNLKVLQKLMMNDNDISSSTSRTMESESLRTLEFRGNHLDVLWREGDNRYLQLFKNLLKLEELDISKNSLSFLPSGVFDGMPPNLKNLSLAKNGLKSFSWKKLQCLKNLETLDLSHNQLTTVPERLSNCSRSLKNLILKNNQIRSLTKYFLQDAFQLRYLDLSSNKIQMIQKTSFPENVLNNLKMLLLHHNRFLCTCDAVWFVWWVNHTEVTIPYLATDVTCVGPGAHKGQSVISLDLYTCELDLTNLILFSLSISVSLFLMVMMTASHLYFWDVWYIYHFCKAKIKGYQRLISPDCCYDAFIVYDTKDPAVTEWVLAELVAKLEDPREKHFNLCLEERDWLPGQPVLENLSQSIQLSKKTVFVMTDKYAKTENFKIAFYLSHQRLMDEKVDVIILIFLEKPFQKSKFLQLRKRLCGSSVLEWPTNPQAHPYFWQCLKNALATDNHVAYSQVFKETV
Procedure: as §1, with “triplicate. […] CL307 at 1 μg/mL Antagonist: 10 ng/mL.” for “triplicate.”, “expression.” for “expression. After a 16-24 hr incubation the optical density (OD) was read at 650 nm on a Molecular Devices SpectraMax 340PC absorbance detector.”

[3] = intrauterine LPS with Amitriptyline or TAK242
[4] = intrauterine LPS (100 ug/kg) compared with saline

With CN(C)CCC=C1c2ccccc2CCc2ccccc21 [Amitriptyline] the “effect on control cell line HEK293/Null1” value (HEK293/Null1) was “slight inhibitory effect”, the “effect on control cell line HEK293/Null2” value (HEK293/Null2) was “slight inhibitory effect” and the “effect on control cell line HEK293/Null” value (HEK293/Null) was “inhibitory effect”. For the same molecule, the “LPS-induced activation of spinal astrocytes (GFAP staining, dorsal horn)” value (dorsal horn astrocytes) was “blocks the impact of intrauterine LPS at multiple levels of the spinal cord and appears to reduce astrocytic reactivity to below basal levels”, the “LPS-induced activation of spinal astrocytes (GFAP staining, dorsal horn)” value (dorsal horn astrocytes; listed as amitriptyline) was “prevented LPS-induced activation of spinal astrocytes and microglia; also recorded: reduced spinal activation of astrocytes below baseline levels; also recorded: blocked the impact of intrauterine LPS at multiple levels of the spinal cord and reduced astrocytic reactivity to below basal levels” and the “integrated density of GFAP staining (activated astrocytes within the dorsal horn)” value (dorsal horn astrocytes) was “significantly reduce LPS effect”. For the same molecule, the “LPS-induced activation of spinal microglia (Iba1 staining, dorsal horn)” value (dorsal horn microglia) was “blocked the impact of intrauterine LPS at multiple levels of the spinal cord and reduced microglial reactivity to basal levels; also recorded: appears to reduce microglial reactivity to basal levels”, the “LPS-induced activation of spinal microglia (Iba1 staining, dorsal horn)” value (dorsal horn microglia; listed as amitriptyline) was “prevented LPS-induced activation of spinal astrocytes and microglia” and the “LPS-induced spinal glial activation” value (spinal glial cells) was “showed additional activity reducing spinal glial activation above TAK-242 alone”. The “LPS-induced spinal glial activation” value (spinal glial cells; listed as amitriptyline) was “effect was prevented”, the “proportion of mice displaying severe grimace” value ([1]; intrauterine LPS with amitriptyline vs LPS only, categorical assessment, p=0.043) was “significantly reduced severe grimace behaviour” and the “Facial Grimace Score” value [1, 3] was “reduced these scores”. The clinical use [2] was “has been used successfully to treat PMS and depression”.
In the case of CNCCC=C1c2ccccc2CCc2ccccc21 [Nortriptyline], the “Fold Induction” value (Human TLR7) is reported as “slight potentiating effect”, the “effect on control cell line HEK293/Null1” value (HEK293/Null1) is reported as “slight inhibitory effect” and the “effect on control cell line HEK293/Null2” value (HEK293/Null2) is reported as “slight inhibitory effect”.
With CCOC(=O)C1=CCCC[C@H]1S(=O)(=O)Nc1ccc(F)cc1Cl [TAK-242] the “LPS-induced activation of spinal astrocytes (GFAP staining, dorsal horn)” value (dorsal horn astrocytes) was “prevented LPS-induced activation of spinal astrocytes and microglia”, the “LPS-induced activation of spinal astrocytes (GFAP staining, dorsal horn)” value (dorsal horn astrocytes; listed as TAK242) was “blocked the impact of intrauterine LPS at multiple levels of the spinal cord and reduced astrocytic reactivity to below basal levels; also recorded: blocks the impact of intrauterine LPS at multiple levels of the spinal cord and appears to reduce astrocytic reactivity to below basal levels” and the “integrated density of GFAP staining (activated astrocytes within the dorsal horn)” value (dorsal horn astrocytes) was “significantly reduce LPS effect”. The “LPS-induced activation of spinal microglia (Iba1 staining, dorsal horn)” value (dorsal horn microglia) was “prevented LPS-induced activation of spinal astrocytes and microglia; also recorded: reduced spinal activation of microglia below baseline levels”, the “LPS-induced activation of spinal microglia (Iba1 staining, dorsal horn)” value (dorsal horn microglia; listed as TAK242) was “blocked the impact of intrauterine LPS at multiple levels of the spinal cord and reduced microglia reactivity to basal levels; also recorded: appears to reduce microglia reactivity to basal levels” and the “LPS-induced spinal glial activation” value (spinal glial cells) was “effect was also prevented; also recorded: block spinal glial activation following intrauterine administration of LPS”. The “Facial Grimace Score” value [1, 3] was “reduced grimace scores non-significantly”.
For lipopolysaccharide [LPS], the “activation of spinal astrocytes (GFAP staining)” value (dorsal horn astrocytes; [4]) was “induced activation of spinal astrocytes and microglia; also recorded: substantial increase in GFAP astrocyte staining throughout multiple levels of the spinal cord; also recorded: induced activation of astrocytes at multiple levels of the spinal levels compared with saline”, the “activation of spinal microglia (Iba1 staining)” value (dorsal horn microglia; [4]) was “induced activation of spinal astrocytes and microglia; also recorded: localised increase in Iba1 microglial staining throughout select levels of the spinal cord; also recorded: induced activation of microglia with inconsistent effect across levels” and the “activation of spinal glial cells” value (spinal glial cells; intra-uterine LPS) was “activate spinal glial cells, including astrocytes and microglia”. For the same molecule, the “Facial Grimace Score” value ([1]; intrauterine LPS vs saline) was “caused a significant increase in the presentation of Grimace behaviours in animals”.
